Results: patent US20120142109A1, “METHOD FOR PRODUCING T CELL POPULATION UNDER PRESENCE OF RETINOIC ACID” (priority 2009, published 2012)

Key:
Type in all cases: cell-based, human
PBMC = assay: Cell growth rate relative to cell number at initiation of culture; settings: Example 2, FIG. 2; fibronectin fragment/anti-CD3 antibody stimulation compared with anti-CD3 antibody alone, regardless of presence or absence of retinoic acid
Method: A PBMC prepared from a healthy person from whom informed consent had been obtained was suspended at 0.18×10^6 cells/mL in a GT-T503 medium containing 1% autologous plasma, 720 IU/mL IL-2, 0.2% HSA, 2.5 μg/mL Fungizone and 10 nM retinoic acid. The suspension was added to the fibronectin fragment/anti-CD3 antibody-adherent plate or the anti-CD3 antibody-adherent plate at 2.65 mL/well. As controls, a cell suspension not containing retinoic acid was added to the plates. Each plate was cultured at 37° C. for 4 days in a CO2 incubator.
A gene transfer operation was carried out as follows. The PBMC which had been stimulated with an anti-CD3 antibody alone or a fibronectin fragment/an anti-CD3 antibody for 4 days was added to the virus-bound plate at 0.8×10^6 cells/2.0 mL/well. This plate was cultured at 37° C. overnight in a CO2 incubator. […]
On the 7th day after initiation of stimulation of the PBMC, the cell was seeded at 0.1×10^6 cells/mL, and cultured until the 10th day. The cell growth rate was measured on the 4th, 5th, 7th and 10th days. On the 4th day, cell surface markers before the cell was transferred to the virus-bound plate were measured. On the 10th day, cell surface markers, expression of a transferred TCR and the copy number of a transferred gene were measured. […]

gene-transferred cell = assay: Provirus copy number of the transferred gene; settings: Example 3, FIG. 11; ZsGreen gene, virus-bound plate; 10 nM retinoic acid; 7th day
Method: The provirus copy number of the transferred gene in the gene-transferred cell was measured with Provirus Copy Number Detection Primer Set. Human (manufactured by TAKARA BIO INC.). In FIG. 6, the ordinate axis indicates the copy number of the transferred gene in a gene-transferred cell. As a result, the copy number was increased by a combination of stimulation by an anti-CD3 antibody alone or fibronectin fragment/anti-CD3 antibody stimulation with addition of retinoic acid, and the increase of the copy number correlated with increase in gene transfer efficiency.
The results of measurement of the copy number of the transferred gene in the gene-transferred cell into which the gene was transferred using the virus-bound plate for gene transfer are shown in FIG. 11. In FIG. 11, the ordinate axis indicates the copy number of the transferred gene in the gene-transferred cell. As a result, the copy number under the combination condition of stimulation by an anti-CD3 antibody alone or fibronectin fragment/anti-CD3 antibody stimulation with addition of retinoic acid was about 2 times the copy number under the condition of no addition of retinoic acid. The copy number correlated with gene transfer efficiency.
The provirus copy number of the transferred gene in the cultured cells was measured using Provirus Copy Number Detection Primer Set. Human (manufactured by TAKARA BIO INC.). […]

[1] = system: T2A24 cell pulsed with MAGE-A4; assay: Specific cytotoxic activity of gene-transferred cells, Calcein release
Method: Analysis of cytotoxicity of the gene-transferred cell on a MAGE-A4-derived peptide p143 was carried out. […] The suspension was cultured at 37° C. for 1 hour. The cells were washed with a medium not containing Calcein-AM, and mixed with a 10-fold amount of K562 cells (ATCC CCL-243) to prepare Calcein-labeled target cells. The K562 cells were used in order to exclude nonspecific cytotoxic activity due to NK cells commingling with responder cells. The cells on the 10th day after initiation of culture as effector cells were stepwisely diluted with a RPMI 1640 medium containing 10% FBS so as to be 1×10^5 to 1×10^6 cells/mL. Then, 100 μL/well of the dilution was dispended into each well of a 96-well cell culture plate. The Calcein-labeled target cells were adjusted to 1×10^5/mL and added to the wells at 100 μL/well. […] From the each well, 100 μL of the culture supernatant was removed, and the amount of Calcein released into the culture supernatant was measured with a fluorescent plate reader (485 nm/538 nm). “Specific cytotoxic activity (%)” was calculated according to the following mathematical formula 1.
Specific cytotoxic activity(%)=[{(measured value of each well)−(minimum released amount)}/{(maximum released amount)−(minimum released amount)}]×100 [Mathematical formula 1] […]

[2] = system: CD8 single positive and CD4 single positive cells; assay: Proportion of ZsGreen positive cells by flow cytometry; settings: Example 3, FIG. 9; gene transfer using virus-bound (fibronectin fragment) plate; 10 nM retinoic acid; 7th day
Method: A gene transfer operation was carried out as follows. […] The plate was cultured at 37° C. for 4 hours in a CO2 incubator. The cells after culturing were suspended at 0.1×10^6 cells/mL in a GT-T503 medium containing 1% autologous plasma, 720 IU/mL IL-2, 0.2% HSA, 2.5 μg/mL Fungizone and 10 nM retinoic acid. The resulting suspension was seeded on a 12-well plate, and cultured at 37° C. for 3 days. At the same time, a gene transfer operation and cell culture after gene transfer were similarly carried out using a cell suspension not containing retinoic acid as a control.
Regarding gene transfer using a virus-bound plate for gene transfer, the cell growth rate was measured on the 4th and 7th days, and cell surface markers, the proportion of ZsGreen positive cells and the copy number of a transferred gene were measured on the 7th day.
After initiation of stimulation of the PBMC, the cells on the 7th day in the case of gene transfer using the virus-bound plate for gene transfer, and the cells on the 6th day in the case of gene transfer by a polybrene method were reacted with a PE-Cy7-labeled anti-human CD4 antibody or an APC-Cy7-labeled anti-human CD8 antibody (manufactured by Becton Dickinson) at 4° C. for 20 minutes, washed and, then subjected to flow cytometry analysis using FACScant (manufactured by Becton Dickinson).

| Compound | cell growth rate (PBMC) | copy number of the transferred gene relative to no addition of retinoic acid (gene-transferred cell) | cytotoxic activity on the specific target cells ([1]; Example 4, FIG. 15, retinoic acid stimulation group vs absence, cells on 10th day, each E/T ratio) | cytotoxic activity on the specific target cells ([1]; Example 5, FIG. 22, RR, OR and R- groups vs O-, E/T 1:1, cells on 11th day) | increase of proportion of ZsGreen positive cells as compared with no addition of retinoic acid [2] [fold] |
| --- | --- | --- | --- | --- | --- |
| fibronectin fragment: recombinant fibronectin fragment CH-296, commercially available as RetroNectin (TAKARA BIO INC.) | higher | – | – | – | – |
| CC1=C(/C=C/C(C)=C/C=C/C(C)=C/C(=O)O)C(C)(C)CCC1 [retinoic acid] | – | about 2 times | high | higher | 1.5 |
